Experimental findings from article PMC11233931, “Remodeling tumor‐associated macrophage for anti‐cancer effects by rational design of irreversible inhibition of mitogen‐activated protein kinase‐activated protein kinase 2” (MedComm, 2024) are described below.

What all share (experiment): Eurofins kinase selectivity profile against 380 other human recombinant kinases (Table S2)
Holding throughout (format): biochemical

The target in experiment [1] is T1, 380 human recombinant protein kinases (Homo sapiens, UniProt O43353).
T1 construct: purchased Eurofins (Celle Lévescault)
T1 sequence (O43353 whole entry): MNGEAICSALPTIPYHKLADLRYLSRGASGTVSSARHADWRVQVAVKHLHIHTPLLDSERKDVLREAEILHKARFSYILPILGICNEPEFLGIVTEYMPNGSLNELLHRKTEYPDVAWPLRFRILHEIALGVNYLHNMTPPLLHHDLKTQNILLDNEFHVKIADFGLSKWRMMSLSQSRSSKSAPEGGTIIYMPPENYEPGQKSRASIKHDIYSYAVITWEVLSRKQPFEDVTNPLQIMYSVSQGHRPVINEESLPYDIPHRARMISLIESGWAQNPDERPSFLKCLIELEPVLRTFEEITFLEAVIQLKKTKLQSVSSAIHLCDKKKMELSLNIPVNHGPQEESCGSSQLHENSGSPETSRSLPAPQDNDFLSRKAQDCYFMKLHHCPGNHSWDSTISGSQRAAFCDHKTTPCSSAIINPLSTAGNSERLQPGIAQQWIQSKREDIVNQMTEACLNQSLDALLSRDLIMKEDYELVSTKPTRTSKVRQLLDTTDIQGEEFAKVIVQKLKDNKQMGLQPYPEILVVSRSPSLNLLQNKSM
Particulars: RIPK2(h), read-out: Inhibition rate. The method in brief:
(§1)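 Commercial selectivity screen of the test compound against a panel of 380 human recombinant protein kinases, run by an outside contractor at several compound concentrations to check whether its potency was specific for MK2.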

Experiment [2] deals with T2, 380 human recombinant protein kinases (Homo sapiens, UniProt P29317).
T2 construct: purchased Eurofins (Celle Lévescault)
T2 sequence (P29317 24-976): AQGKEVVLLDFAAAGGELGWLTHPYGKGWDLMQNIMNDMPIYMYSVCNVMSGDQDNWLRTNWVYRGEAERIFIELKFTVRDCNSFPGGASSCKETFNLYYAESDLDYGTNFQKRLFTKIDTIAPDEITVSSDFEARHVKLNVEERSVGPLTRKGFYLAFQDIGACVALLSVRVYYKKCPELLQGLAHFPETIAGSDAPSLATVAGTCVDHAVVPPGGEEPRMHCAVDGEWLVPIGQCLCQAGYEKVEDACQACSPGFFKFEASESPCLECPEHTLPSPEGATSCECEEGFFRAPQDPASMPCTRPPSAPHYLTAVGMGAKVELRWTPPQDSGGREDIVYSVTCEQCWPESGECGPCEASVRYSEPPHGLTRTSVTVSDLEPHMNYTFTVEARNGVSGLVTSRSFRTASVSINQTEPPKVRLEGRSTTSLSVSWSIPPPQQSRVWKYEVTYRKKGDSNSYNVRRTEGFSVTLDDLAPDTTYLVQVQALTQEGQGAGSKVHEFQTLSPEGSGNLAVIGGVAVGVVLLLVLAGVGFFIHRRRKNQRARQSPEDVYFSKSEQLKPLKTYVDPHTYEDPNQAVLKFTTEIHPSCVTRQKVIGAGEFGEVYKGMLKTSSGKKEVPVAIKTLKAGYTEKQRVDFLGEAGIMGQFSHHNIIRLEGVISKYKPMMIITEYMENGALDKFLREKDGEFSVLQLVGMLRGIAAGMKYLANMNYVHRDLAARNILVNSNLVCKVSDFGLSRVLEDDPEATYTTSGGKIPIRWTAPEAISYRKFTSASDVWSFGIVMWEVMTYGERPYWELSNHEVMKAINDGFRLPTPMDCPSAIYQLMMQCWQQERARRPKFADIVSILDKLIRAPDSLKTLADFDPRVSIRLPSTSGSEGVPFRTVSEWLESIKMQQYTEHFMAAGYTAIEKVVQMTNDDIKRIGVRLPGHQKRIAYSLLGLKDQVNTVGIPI
Particulars: EphA2(h), read-out: Inhibition rate. The method in brief:
as §1

The target of experiment [3] is T3, 380 human recombinant protein kinases (Homo sapiens, UniProt P35916).
T3 construct: purchased Eurofins (Celle Lévescault)
T3 sequence (P35916 25-1363): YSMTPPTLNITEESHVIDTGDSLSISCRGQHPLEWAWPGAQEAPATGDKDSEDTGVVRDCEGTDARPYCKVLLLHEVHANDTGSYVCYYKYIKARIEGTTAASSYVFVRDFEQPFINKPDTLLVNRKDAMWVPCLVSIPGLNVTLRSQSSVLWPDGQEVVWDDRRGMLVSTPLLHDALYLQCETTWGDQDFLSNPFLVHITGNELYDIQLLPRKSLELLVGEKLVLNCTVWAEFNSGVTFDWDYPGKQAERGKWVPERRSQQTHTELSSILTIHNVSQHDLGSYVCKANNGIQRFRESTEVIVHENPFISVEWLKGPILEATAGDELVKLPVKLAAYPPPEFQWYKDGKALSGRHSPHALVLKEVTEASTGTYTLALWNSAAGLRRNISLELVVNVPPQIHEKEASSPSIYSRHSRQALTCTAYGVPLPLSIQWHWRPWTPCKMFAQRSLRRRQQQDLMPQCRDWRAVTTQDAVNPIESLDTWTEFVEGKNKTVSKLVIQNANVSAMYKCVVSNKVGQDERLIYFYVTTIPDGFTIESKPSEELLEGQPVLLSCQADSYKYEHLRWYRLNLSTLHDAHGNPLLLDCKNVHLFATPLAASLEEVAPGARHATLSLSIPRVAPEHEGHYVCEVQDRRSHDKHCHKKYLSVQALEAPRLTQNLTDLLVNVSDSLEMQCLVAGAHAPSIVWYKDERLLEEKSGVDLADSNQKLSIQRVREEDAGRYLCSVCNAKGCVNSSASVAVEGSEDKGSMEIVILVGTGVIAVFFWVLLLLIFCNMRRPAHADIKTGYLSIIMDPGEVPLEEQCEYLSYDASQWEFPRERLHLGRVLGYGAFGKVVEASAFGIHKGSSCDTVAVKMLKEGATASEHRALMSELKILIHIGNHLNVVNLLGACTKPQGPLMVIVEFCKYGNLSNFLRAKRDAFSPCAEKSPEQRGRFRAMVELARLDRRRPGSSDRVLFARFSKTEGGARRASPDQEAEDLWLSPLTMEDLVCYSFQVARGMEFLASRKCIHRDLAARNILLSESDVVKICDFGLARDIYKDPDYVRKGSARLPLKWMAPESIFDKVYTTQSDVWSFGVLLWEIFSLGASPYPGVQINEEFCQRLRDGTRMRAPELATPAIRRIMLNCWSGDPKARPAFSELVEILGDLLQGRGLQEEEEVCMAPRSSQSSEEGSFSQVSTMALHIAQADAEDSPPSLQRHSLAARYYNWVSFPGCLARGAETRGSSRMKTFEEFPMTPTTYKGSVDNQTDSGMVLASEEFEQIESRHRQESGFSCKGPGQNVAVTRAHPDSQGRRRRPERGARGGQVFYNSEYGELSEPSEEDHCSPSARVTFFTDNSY
As to conditions: Flt4(h), read-out: Inhibition rate. The method in brief: as §1

Experiment [4] deals with T4, 380 human recombinant protein kinases (Homo sapiens, UniProt P36888).
T4 construct: purchased Eurofins (Celle Lévescault)
T4 sequence (P36888 27-993): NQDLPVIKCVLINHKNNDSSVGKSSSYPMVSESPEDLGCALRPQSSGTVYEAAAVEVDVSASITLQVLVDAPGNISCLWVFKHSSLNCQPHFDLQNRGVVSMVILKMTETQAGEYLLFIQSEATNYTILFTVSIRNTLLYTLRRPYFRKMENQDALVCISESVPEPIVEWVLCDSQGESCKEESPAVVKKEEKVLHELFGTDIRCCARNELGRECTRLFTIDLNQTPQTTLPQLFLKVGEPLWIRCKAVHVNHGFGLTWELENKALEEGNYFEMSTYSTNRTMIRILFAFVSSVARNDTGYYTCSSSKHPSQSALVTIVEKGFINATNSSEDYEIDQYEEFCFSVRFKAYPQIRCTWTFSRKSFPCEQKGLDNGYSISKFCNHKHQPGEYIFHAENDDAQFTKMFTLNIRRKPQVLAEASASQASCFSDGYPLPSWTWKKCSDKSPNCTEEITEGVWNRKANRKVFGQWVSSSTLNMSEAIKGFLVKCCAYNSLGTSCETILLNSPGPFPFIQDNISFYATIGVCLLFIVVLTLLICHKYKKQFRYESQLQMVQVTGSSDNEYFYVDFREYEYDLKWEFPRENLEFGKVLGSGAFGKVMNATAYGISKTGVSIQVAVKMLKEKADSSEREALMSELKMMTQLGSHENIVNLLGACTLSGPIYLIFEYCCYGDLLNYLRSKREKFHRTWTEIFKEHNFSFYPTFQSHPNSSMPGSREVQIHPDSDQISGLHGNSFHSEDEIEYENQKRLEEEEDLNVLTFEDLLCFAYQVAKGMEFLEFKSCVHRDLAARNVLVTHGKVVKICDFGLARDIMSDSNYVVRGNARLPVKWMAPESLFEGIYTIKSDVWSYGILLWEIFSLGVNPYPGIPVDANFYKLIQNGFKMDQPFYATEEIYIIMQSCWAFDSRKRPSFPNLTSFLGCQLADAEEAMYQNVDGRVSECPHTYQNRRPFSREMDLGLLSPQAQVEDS
Particulars: Flt3(h), read-out: Inhibition rate. The method in brief:
as §1

In experiment [5] the target is T5, 380 human recombinant protein kinases (Homo sapiens, UniProt Q13237).
T5 construct: purchased Eurofins (Celle Lévescault)
T5 sequence (Q13237 1-762): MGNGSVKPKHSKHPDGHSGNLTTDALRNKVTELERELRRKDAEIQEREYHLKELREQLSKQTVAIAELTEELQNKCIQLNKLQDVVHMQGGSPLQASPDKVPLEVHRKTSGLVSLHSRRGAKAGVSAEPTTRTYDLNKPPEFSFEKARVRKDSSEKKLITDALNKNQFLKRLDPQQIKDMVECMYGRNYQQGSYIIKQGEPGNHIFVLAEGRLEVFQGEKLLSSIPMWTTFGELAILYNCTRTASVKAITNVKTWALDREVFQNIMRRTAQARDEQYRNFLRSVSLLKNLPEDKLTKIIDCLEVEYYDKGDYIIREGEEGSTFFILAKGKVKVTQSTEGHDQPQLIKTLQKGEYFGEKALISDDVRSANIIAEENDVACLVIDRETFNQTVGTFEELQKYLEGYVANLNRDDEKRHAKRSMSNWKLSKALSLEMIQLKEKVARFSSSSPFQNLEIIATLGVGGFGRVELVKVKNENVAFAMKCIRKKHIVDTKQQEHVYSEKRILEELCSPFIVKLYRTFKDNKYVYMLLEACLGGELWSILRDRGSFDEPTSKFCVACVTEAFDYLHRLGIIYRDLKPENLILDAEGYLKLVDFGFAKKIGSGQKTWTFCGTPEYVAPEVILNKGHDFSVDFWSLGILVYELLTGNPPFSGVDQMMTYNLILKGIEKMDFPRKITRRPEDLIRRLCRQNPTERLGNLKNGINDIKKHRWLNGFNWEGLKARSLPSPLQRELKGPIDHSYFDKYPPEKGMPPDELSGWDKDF
As to conditions: PRKG2(h), read-out: Inhibition rate. The method in brief: as §1

Experiment [6] has as its target T6, 380 human recombinant protein kinases (Homo sapiens, UniProt Q6IQ55).
T6 construct: purchased Eurofins (Celle Lévescault)
Particulars: TTBK2(h), read-out: Inhibition rate (%). The method in brief: as §1

T6 sequence (Q6IQ55 whole entry): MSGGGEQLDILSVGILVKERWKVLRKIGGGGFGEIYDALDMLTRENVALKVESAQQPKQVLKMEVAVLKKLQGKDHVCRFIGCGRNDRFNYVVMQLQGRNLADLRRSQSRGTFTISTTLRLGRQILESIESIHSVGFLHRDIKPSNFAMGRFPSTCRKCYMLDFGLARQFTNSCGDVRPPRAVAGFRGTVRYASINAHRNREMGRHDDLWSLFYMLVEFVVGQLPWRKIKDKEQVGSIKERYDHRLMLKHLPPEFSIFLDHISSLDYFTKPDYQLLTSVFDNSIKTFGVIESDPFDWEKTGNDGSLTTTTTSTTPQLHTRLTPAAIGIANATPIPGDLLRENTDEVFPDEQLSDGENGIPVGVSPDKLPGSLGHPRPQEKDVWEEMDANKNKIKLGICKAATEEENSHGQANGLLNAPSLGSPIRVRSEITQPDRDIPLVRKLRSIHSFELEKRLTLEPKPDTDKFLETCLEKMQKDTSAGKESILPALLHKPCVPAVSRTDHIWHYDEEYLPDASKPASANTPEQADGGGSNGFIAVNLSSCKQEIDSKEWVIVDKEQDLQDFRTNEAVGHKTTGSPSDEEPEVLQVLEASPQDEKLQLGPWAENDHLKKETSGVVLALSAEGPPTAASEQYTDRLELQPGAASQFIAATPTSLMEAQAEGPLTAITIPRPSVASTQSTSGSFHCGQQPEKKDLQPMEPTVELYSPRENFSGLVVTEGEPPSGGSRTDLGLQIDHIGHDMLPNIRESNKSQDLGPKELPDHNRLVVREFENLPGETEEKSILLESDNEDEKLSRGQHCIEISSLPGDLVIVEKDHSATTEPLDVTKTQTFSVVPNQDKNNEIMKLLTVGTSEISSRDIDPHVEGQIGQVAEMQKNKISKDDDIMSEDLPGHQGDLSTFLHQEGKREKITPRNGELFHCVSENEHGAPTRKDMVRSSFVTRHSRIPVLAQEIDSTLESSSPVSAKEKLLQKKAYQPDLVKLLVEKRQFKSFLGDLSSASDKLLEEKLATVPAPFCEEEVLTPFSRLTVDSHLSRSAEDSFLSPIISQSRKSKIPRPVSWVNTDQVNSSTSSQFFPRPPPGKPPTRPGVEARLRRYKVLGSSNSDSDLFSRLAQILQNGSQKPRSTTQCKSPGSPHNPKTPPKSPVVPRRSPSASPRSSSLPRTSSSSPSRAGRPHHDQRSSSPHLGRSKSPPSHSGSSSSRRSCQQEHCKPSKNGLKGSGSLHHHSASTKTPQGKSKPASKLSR

For the molecule `C=CC(=O)Nc1cc(-c2cc(-c3cc4c([nH]3)CCNC4=O)ccn2)ccc1OC(F)(F)F` [compound 11], the inhibition at 0.01 µM in experiment [1] (10 nM) was 11%; in experiment [2] (10 nM), 0%; in experiment [3] (10 nM) it was -8%; in experiment [4] (10 nM) it was -12%; in experiment [5] (10 nM) it was 7%; in experiment [6] (10 nM), -1%. Moreover, the inhibition at 0.1 µM in experiment [1] (100 nM) was 46%; in experiment [2] (100 nM) it was 3%; in experiment [3] (100 nM), 5%; in experiment [4] (100 nM), -5%; in experiment [5] (100 nM), 19%; in experiment [6] (100 nM) it was -3%. Further, the inhibition at 1 µM was 88% in experiment [1] (1000 nM); -2% in experiment [2] (1000 nM); 43% in experiment [3] (1000 nM); 24% in experiment [4] (1000 nM); 35% in experiment [5] (1000 nM); 3% in experiment [6] (1000 nM).
